# Source: US20250019386A1, “PYRROLO[1,2-b]-2-PYRIDAZINONE COMPOUNDS AS 5-HT4 RECEPTOR AGONISTS” (SUVEN LIFE SCIENCES LIMITED, priority 2022, published 2025)
# What was measured:
# [1] = Rat brain penetration study; assay type: in vivo; settings: brain/plasma, oral (gavage) 3 mg/kg, male Wistar rats, brain concentrations below LLOQ taken as zero, read-out: Single dose Brain Penetration (Cb/Cp)
# Description: Male Wistar rats (225±25 g) were used as experimental animals. Three animals were housed in each cage. Animals were given water and food ad libitum throughout the experiment and maintained on a 12 h light/dark cycle.
# Brain penetration was determined in discrete manner in rats. One day prior to dosing day, male Wistar rats were acclimatized. After acclimatization, the rats were grouped according to their weight. In each group, 3 animals were kept in individual cages and allowed free access to food and water. At each time point (0.5, 1, and 2 h) n=3 animals were used.
# The compounds of formula (I) were suitably preformulated and administered orally at (free base equivalent) 3 mg/kg. Blood samples were collected via, cardiac puncture by using isoflurane anesthesia. The animals were sacrificed to collect brain tissue. Plasma was separated and brain samples were homogenized and stored frozen at −20° C. until analysis.
# The concentrations of the compounds of formula (I) were quantified in plasma and brain homogenate by qualified LC-MS/MS method using a suitable extraction technique. The compounds of formula (I) were quantified in the calibration range of 1-2000 ng/mL in plasma and brain homogenate. Study samples were analyzed using calibration samples in the batch and quality control samples spread across the batch. Extent of brain-plasma ratio was calculated (Cb/Cp). Brain concentrations were found below LLOQ and a value of zero was considered for calculation purposes.
# [2] = target: T1, 5-HT4 receptors (Homo sapiens (Human), UniProt Q13639); assay: Determination of EC50 values for 5-HT4 receptor (pCRE-Luc reporter assay); assay type: cell-based; settings: CHO cells expressing recombinant human 5-HT4 receptor and pCRE-Luc reporter; 4 h incubation; luciferase activity
# T1 sequence (Q13639 whole entry): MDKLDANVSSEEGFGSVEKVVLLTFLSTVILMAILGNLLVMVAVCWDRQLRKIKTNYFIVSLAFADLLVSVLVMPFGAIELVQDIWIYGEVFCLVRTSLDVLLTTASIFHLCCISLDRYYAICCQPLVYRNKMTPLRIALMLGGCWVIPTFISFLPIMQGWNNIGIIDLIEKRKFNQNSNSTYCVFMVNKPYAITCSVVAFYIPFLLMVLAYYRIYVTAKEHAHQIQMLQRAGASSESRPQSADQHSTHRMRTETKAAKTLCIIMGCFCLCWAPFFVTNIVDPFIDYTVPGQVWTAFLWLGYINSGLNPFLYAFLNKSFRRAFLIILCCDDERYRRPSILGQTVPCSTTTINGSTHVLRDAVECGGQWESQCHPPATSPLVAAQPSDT
# Description: A stable CHO cell line expressing recombinant human 5-HT4 receptor and pCRE-Luc reporter system was used for cell-based assay. The assay offers a non-radioactive based approach to determine binding of a compound to GPCRs. In this specific assay, the level of intracellular cyclic AMP, which is modulated by activation, or inhibition of the receptor is measured. The recombinant cells harbor luciferase reporter gene under the control of cAMP response element.
# The above cells were grown in 96 well clear bottom white plates in Ham's F12 medium containing 10% fetal bovine serum. Prior to the addition of compounds or standard agonist, cells were serum starved overnight. Increasing concentrations of test compounds were added to the cells in OptiMEM medium. The incubation was continued in CO2 incubator at 37° C. with 5% CO2 conditions for 4 h. Medium was removed and cells were washed with phosphate buffered saline. The cells were lysed and luciferase activity was measured in a Luminometer. Concentration-response data was generated using the luciferase assay, following incubation of cells with receptor ligands, were analyzed by subtracting basal levels (i.e. with medium alone), then normalizing values as a percentage of controls (endogenous agonist serotonin (10 μM)). […] EC50 values of the compounds were defined as the concentration required in stimulating the luciferase activity by 50%.
# [3] = Rat pharmacokinetic study; assay type: in vivo; settings: male Wistar rats, plasma; for bioavailability: oral 3 mg/kg vs intravenous 1 mg/kg
# Description: Male Wistar rats (250±50 g) were used as experimental animals. Animals were housed individually in polypropylene cages. Two days prior to study, rats were anesthetized with isoflurane for surgical placement of jugular vein catheter. Rats were randomly divided for oral (3 mg/kg and 10 mL/kg as dose volume) and intravenous (1 mg/kg and 2 mL/kg as dose volume) dosing (n=3/group) and fasted overnight before oral dosing (p.o.). However, rats allocated to intravenous dosing food and water was provided ad libitum.
# Intravenous formulation was prepared by using water for injection as vehicle. For Oral, formulation was prepared by using reagent grade water as vehicle. The dose formulations were prepared freshly on the day of dosing.
# After dosing of animal, each time point a 200 μL of blood sample was collected through jugular vein and replenished with an equivalent volume of normal saline. The collected blood sample was transferred into a labeled eppendorf tube containing 10 μL of sodium heparin (1000 IU/mL) as an anticoagulant. Typically blood samples were collected at following time points: 0.08, 0.25, 0.5, 1, 2, 4, 6, 8, and 24 h post dose. Blood was centrifuged at 4000 rpm for 10 min. Plasma was separated and stored frozen at −80° C. until analysis. The concentrations of the test compounds were quantified in plasma by qualified LC-MS/MS method using a suitable extraction technique. The test compounds were quantified in the calibration range around 1-2000 ng/mL in plasma. Study samples were analyzed using calibration samples in the batch and quality control samples spread across the batch.
# Pharmacokinetic parameters Cmax, AUCt, t1/2 and bioavailability were calculated by non-compartmental model using standard non-compartmental model by using Phoenix WinNonlin 6.4 version Software.
# [4] = target: T1, 5-HT4 receptors; settings: background statement; cited from earlier work
# [5] = tested on: gastric emptying; assay: Effect on gastric emptying in Beagle dogs (clonidine model of gastroparesis); assay type: in vivo; settings: 10 mg/kg oral, clonidine-treated beagle dogs
# Description: Six beagle dogs were used for the study in a crossover manner such that all 6 dogs received all the treatments. Each dog was placed in an individual cage after overnight fasting and water removed. To provide a model of gastroparesis, clonidine (α2 adrenergic agonist) at a dose of 10 μg/kg was injected subcutaneously 30 min before test meal administration.
# Dogs were orally administered test compound of example 2 at 1, 3 and 10 mg/kg or vehicle or cisapride at 10 mg/kg immediately before the administration of clonidine. The test meal (10 mL/kg), made up of commercially available semi-solid food with 10 mg/kg of acetaminophen (APAP), was provided 30 min after clonidine injection. Blood samples were collected from cephalic vein at 0, 0.25, 0.5, 0.75, 1.0, 1.25, 1.5 & 2.0 h after test meal administration and then plasma was separated by centrifugation. Plasma concentrations of APAP were determined by in-house methods using LC-MS/MS.
# [6] = target: hERG potassium channels (Homo sapiens (Human), UniProt Q12809); settings: background statement; cited from earlier work
# Chain of hERG potassium channels (Q12809 whole entry): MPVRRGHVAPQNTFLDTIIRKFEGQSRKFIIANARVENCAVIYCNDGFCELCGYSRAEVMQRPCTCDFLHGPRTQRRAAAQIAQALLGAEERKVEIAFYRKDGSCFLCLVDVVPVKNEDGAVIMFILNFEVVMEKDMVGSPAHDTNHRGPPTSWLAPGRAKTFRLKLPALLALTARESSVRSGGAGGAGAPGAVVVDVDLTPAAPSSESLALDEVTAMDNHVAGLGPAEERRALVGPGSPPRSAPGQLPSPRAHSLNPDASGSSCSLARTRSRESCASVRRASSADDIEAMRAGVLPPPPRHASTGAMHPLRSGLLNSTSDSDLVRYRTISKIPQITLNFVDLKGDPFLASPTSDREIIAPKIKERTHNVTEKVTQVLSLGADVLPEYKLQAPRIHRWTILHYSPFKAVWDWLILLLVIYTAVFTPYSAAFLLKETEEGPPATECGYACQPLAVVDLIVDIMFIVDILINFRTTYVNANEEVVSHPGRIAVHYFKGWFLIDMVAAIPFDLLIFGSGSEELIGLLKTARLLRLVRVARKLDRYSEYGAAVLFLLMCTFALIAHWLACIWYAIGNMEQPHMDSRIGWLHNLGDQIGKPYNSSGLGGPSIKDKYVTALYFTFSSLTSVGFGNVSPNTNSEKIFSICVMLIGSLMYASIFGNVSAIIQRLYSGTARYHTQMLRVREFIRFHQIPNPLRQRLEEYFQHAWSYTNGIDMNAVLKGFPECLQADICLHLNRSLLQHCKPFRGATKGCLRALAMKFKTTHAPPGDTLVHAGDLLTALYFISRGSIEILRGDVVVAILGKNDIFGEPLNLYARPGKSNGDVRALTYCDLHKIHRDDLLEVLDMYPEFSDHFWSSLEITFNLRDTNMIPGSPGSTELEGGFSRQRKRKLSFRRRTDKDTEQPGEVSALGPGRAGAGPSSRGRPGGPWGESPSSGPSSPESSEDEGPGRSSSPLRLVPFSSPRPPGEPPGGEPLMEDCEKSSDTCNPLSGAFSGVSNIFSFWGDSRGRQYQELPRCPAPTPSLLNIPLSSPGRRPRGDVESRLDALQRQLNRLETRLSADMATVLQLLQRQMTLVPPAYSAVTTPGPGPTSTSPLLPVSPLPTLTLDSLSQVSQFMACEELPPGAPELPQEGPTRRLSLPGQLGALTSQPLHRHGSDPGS
Compound,Kp [1],EC50 [2] [nM],"AUC(0-t) ([3]; intravenous (bolus), 1 mg/kg) [ng·h/mL]","half-life ([3]; intravenous (bolus), 1 mg/kg) [h]","AUC(0-t) ([3]; oral (gavage), 3 mg/kg) [ng·h/mL]","Cmax ([3]; oral (gavage), 3 mg/kg) [ng/mL]",bioavailability [3] [%],selectivity for 5-HT4 receptors [4],speed of gastric emptying [5],interaction with hERG potassium channels [6]
"CC(C)n1c(=O)c(C(=O)NC2CC3CCC(C2)N3CCNS(C)(=O)=O)cc2cccn21.O=C(O)C(O)C(O)C(=O)O [Example 28, N-{8-[2-Methanesulfonylaminoethyl]-8-azabicyclo[3.2.1]oct-3-yl} [1-isopropyl-2-oxo-1,2-dihydro pyrrolo[1,2-b]pyridazin]-3-carboxamide L-(+)-tartrate]",0,12,146 ± 39,1.3 ± 0.2,189 ± 26,83 ± 51,43 ± 6,,,
"COC(=O)NCCCN1C2CCC1CC(NC(=O)c1cc3cccn3n(C(C)C)c1=O)C2.O=C(O)C(O)C(O)C(=O)O [Example 34, N-{8-[3-Carbomethoxyaminopropyl]-8-azabicyclo[3.2.1]oct-3-yl} [1-isopropyl-2-oxo-1,2-dihydro pyrrolo[1,2-b]pyridazin]-3-carboxamide L-(+)-tartrate]",0,18,119 ± 16,1.3 ± 0.3,274 ± 74,174 ± 49,77 ± 21,,,
COc1cc(N)c(Cl)cc1C(=O)NC1CCN(CCCOc2ccc(F)cc2)CC1OC (stereo not shown) [cisapride],,,,,,,,poor selectivity,restored speed of gastric emptying,potent interaction
[H]/N=C(/NCCCCC)N/N=C/c1c[nH]c2ccc(OC)cc12 [tegaserod],,,,,,,,poor selectivity,,potent interaction
